In one experiment the target is T1, β-galactosidase (Homo sapiens, UniProt P16278).
T1 construct: from leukocytes isolated from healthy donors (controls); from tissue; host or cells: leukocytes from healthy donors, sonicated homogenate
T1 sequence (P16278 29-677): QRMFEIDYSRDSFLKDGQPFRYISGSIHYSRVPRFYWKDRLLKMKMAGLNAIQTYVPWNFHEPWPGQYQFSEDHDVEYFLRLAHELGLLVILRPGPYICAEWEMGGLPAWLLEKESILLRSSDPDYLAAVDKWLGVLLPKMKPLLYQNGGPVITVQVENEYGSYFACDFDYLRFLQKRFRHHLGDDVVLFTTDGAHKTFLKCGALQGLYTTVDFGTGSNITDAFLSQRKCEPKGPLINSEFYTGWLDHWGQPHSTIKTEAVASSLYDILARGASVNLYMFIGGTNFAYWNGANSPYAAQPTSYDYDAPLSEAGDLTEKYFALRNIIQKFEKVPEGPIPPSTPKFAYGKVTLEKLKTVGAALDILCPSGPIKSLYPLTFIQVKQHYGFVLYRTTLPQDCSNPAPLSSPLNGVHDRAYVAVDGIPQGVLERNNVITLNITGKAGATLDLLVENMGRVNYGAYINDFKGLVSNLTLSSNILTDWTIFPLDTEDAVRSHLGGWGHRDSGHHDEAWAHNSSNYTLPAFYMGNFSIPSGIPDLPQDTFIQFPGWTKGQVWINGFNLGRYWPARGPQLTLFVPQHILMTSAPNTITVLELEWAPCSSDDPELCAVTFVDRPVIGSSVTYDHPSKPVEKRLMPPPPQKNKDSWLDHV
Description: Human lysosomal glycosidase selectivity screening (leukocyte homogenate). To be noted: 1 mM, read-out: percentage of inhibition, β-Gal. It is filed as biochemical. Here is the method:
(§1) In order to avoid undesired inhibitory side effects of a potential new drug, it has to be selective for a given target. The selectivity of the newly synthesized compounds 14, 15, and 33·HCl toward GCase was then investigated, evaluating their inhibition at 1 mM concentration toward six other lysosomal glycosidases (namely, α-and β-mannosidases, α- and β-galactosidases, α-fucosidase, and α-glucosidase) in cell homogenates (leucocytes or lymphocytes) isolated from healthy donors. […] Indeed, only moderate inhibitory activity (ca. 50%) was found toward human β-galactosidase for both piperidines 14 and 15, while negligible inhibitory activity was detected in all other cases.
The effect of 1 mM concentration of 14, 15, and 33·HCl was assayed toward six lysosomal glycosidases other than GCase, namely, α-mannosidase, β-mannosidase, α-galactosidase, β-galactosidase, α-fucosidase from leukocytes isolated from healthy donors (controls) and α-glucosidase from lymphocytes isolated from healthy donors’ flesh blood (controls). […]
μL, Sigma –Aldrich) in acetate buffer (0.1M, pH 4.3) containing NaCl (0.1M) and sodium azide (0.02%) were incubated at 37 °C for 1 h. The reaction was stopped by addition o f sodium carbonate (200 μL; 0.5M, pH 10.7) containing Triton X -100 (0.0025 %), and the fluorescence 4 -methylumbelliferone released by β-galactosidase activity was measured in SpectraMax M2 microplate reader ( λex=365 nm, λem=435 nm; Molecular Devices). […]
α-Fucosidase activity was measured in a flat -bottomed 96 -well plate. […]
(§2) α-Glucosidase activity was measured in a flat –bottomed 96 well plate. […] The reaction was stopped by the addition of a solution of sodium carbonate (200 µL; 0.5M, pH 10.7) containing Triton X -100 (0.0025 %), and the fluorescence of 4 -methylumbelliferone released by α-glucosidase activity was measured in […]
(§3) Figure S 48. […] The corresponding calculated percentage of inhibition is indicated above each bar.

A further experiment addresses T2, α-fucosidase (Homo sapiens, UniProt P04066).
T2 construct: from leukocytes isolated from healthy donors (controls); from tissue; host or cells: leukocytes from healthy donors, sonicated homogenate
T2 sequence (P04066 32-466): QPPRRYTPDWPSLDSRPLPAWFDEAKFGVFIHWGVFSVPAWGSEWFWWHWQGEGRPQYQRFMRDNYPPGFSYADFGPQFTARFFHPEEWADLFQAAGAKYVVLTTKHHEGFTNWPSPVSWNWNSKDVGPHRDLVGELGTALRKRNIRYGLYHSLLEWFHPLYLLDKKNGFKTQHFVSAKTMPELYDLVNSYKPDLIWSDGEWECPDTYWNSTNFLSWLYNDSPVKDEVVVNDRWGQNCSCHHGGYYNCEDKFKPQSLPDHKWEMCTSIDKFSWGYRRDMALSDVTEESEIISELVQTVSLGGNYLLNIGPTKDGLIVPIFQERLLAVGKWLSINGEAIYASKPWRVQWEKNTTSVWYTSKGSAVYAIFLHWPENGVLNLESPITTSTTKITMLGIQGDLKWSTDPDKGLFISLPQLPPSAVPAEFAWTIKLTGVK
Described as above. The experiment is classed as biochemical. As to conditions: 1 mM, read-out: percentage of inhibition, α-Fuco. Here is the method:
as §1
The effect of 1 mM concentration of 14, 15, and 33·HCl was assayed toward six lysosomal glycosidases other than GCase, namely, α-mannosidase, β-mannosidase, α-galactosidase, β-galactosidase, α-fucosidase from leukocytes isolated from healthy donors (controls) and α-glucosidase from lymphocytes isolated from healthy donors’ flesh blood (controls). Isolated leukocytes or lymphocytes were disrupted by sonication, and a micro BCA protein assay kit (Sigma-Aldrich) was used to determine the total protein amount for the enzymatic assay, according to the manufacturer’s instructions (for more details, see the Supporting Information section). […]
α-Fucosidase activity was measured in a flat -bottomed 96 -well plate. […] The reaction was stopped by addition of sodium carbonate (200 μL; 0.5M, pH 10.7) containing Triton X -100 (0.0 025 %), and the fluorescence 4 -methylumbelliferone released by α- fucosidase activity was measured in SpectraMax M2 microplate reader ( λex=365 nm, λem=435 nm; Molecular Devices). […]
as §2, §3

Regarding `CCCCCCCC[C@H]1[C@@H](O)[C@H](O)[C@H](O)CN1CCCCCCCC` [compound 14, (2S,3R,4R,5R)-1,2-Dioctylpiperidine-3,4,5-triol], the inhibition at 1000 µM at β-galactosidase is 48%; on α-fucosidase it was 25%.
Turning to `CCCCCCCC[C@@H]1[C@@H](O)[C@H](O)[C@H](O)CN1CCCCCCCC` [compound 15, (2R,3R,4R,5R)-1,2-Dioctylpiperidine-3,4,5-triol], the values for the inhibition at 1000 µM at β-galactosidase and at α-fucosidase were 51% and 24%, respectively.
For `CCCCCCCC[C@@H]1[C@@H](O)[C@H](O)[C@H](O)CN1C(CCCCCCC)CCCCCCC.Cl` [compound 33·HCl, (2R,3R,4R,5R)-2-Octyl-1-(pentadecan-8-yl)-piperidine-3,4,5-triol Hydrochloride], the inhibition at 1000 µM on β-galactosidase was determined as 15%; on α-fucosidase, 5%.

These data come from article PMC8453635, “Piperidine Azasugars Bearing Lipophilic Chains: Stereoselective Synthesis and Biological Activity as Inhibitors of Glucocerebrosidase (GCase)” (The Journal of Organic Chemistry, 2021).
